The numbers were not newly measured in patent publication US5523456A, “Inhibitors of farnesyl-protein transferase” (Merck & Co., Inc., priority 1994, dated 1996), which cites them from elsewhere.

The subject of the data set is Ras farnesylation. To be noted: Hancock et al.; Casey et al.; Schafer et al.

As for `CC[C@H](C)C(=O)O[C@H]1CCC=C2C=C[C@H](C)[C@H](CC[C@@H]3C[C@@H](O)CC(=O)O3)[C@H]21` [compactin], the “Inhibition of Ras farnesylation in vivo” value is “Inhibition of Ras farnesylation in vivo has been demonstrated”.

For `CC[C@H](C)C(=O)O[C@H]1C[C@@H](C)C=C2C=C[C@H](C)[C@H](CC[C@@H]3C[C@@H](O)CC(=O)O3)[C@H]21` [lovastatin], the “Inhibition of Ras farnesylation in vivo” value is recorded as “Inhibition of Ras farnesylation in vivo has been demonstrated”.
